Assay results: US20200001120A1, “APPARATUS, METHOD, AND USE FOR ULTRASOUND MEDIATED MICROBUBBLE DELIVERY OF PHARMACEUTICAL COMPOSITIONS” (priority 2017, published 2020)

Test system: E. coli
Assay: E. coli pneumonia in mice: gentamicin with or without USMB, cfu in lung homogenates
Type: in vivo, C57BL/6 mice
Procedure: To establish whether USMB enhances antibiotic delivery to the injured lung, gentamicin (1.5 mg/kg) was administered to mice by intraperitoneal injection 6 hours after infection with E. coli to determine whether USMB conferred any additional benefit to treatment with antibiotics or microbubbles alone. This relatively low dose of gentamicin was chosen as it is relatively slow and achieves incomplete clearance of lung pathogens and thus allows any benefit of USMB to become apparent. In humans, high doses of gentamicin are known to cause nephro- and ototoxicity, making it contraindicated for human use at high doses.
C57BL/6 mice were infected intratracheally with 1×10^7 colony forming units (cfu) of E. coli and received 1.5 mg/kg of gentamicin by intraperitoneal injection 6 hours later. Thirty minutes later, the mice were then injected intravenously with 1×10^9 microbubbles (Definity™) by tail vein. (Definity™ is an approved microbubble preparation that is used for diagnostic imaging in intensive care unit patients.) This was followed by thoracic ultrasound administration for five minutes. The ultrasound treatment conditions were the same as those used in Example 1. Eighteen hours later, mice were euthanized by cervical dislocation and lungs were homogenized for cfu. Lung homogenates were plated on agar to measure bacterial growth. Each experiment was repeated twice with 3 mice per group. Control mice received microbubbles and antibiotic without ultrasound (MB+ antibiotics) or antibiotics alone (PBS and antibiotics). Other control mice received no antibiotics. […] Data are mean plus SEM (SD if <3 mice) with each dot representing a separate animal. Note the >1 log-fold reduction in cfu in the mice receiving USMB with antibiotics (left-most group) compared to microbubbles/antibiotics alone. An ELISA performed on lung homogenates and plasma measures gentamicin levels.

gentamicin
reduction in cfu in lung homogenates (gentamicin 1.5 mg/kg i.p. plus USMB vs microbubbles/antibiotics alone, 18 hours later): > 1 log-fold
reduction in bacterial growth caused by USMB (gentamicin 1.5 mg/kg i.p. plus USMB, both replicates): 10 fold
bacterial colony forming units (cfu) (gentamicin alone, 1.5 mg/kg i.p.): reduction
benefit over antibiotics alone (microbubbles and antibiotics without ultrasound): no benefit
